For 30 molecules, IC50 results are on record in patent US11292796B2 (SIGNAL PHARMACEUTICALS, LLC, priority 2008, dated 2022).

Molecules are shown by their SMILES.

For the assay, the target named is T1, mTOR (Homo sapiens, UniProt P42345).
T1 construct: purchased Invitrogen PR8683A
T1 sequence (P42345 1360-2549 limits assumed): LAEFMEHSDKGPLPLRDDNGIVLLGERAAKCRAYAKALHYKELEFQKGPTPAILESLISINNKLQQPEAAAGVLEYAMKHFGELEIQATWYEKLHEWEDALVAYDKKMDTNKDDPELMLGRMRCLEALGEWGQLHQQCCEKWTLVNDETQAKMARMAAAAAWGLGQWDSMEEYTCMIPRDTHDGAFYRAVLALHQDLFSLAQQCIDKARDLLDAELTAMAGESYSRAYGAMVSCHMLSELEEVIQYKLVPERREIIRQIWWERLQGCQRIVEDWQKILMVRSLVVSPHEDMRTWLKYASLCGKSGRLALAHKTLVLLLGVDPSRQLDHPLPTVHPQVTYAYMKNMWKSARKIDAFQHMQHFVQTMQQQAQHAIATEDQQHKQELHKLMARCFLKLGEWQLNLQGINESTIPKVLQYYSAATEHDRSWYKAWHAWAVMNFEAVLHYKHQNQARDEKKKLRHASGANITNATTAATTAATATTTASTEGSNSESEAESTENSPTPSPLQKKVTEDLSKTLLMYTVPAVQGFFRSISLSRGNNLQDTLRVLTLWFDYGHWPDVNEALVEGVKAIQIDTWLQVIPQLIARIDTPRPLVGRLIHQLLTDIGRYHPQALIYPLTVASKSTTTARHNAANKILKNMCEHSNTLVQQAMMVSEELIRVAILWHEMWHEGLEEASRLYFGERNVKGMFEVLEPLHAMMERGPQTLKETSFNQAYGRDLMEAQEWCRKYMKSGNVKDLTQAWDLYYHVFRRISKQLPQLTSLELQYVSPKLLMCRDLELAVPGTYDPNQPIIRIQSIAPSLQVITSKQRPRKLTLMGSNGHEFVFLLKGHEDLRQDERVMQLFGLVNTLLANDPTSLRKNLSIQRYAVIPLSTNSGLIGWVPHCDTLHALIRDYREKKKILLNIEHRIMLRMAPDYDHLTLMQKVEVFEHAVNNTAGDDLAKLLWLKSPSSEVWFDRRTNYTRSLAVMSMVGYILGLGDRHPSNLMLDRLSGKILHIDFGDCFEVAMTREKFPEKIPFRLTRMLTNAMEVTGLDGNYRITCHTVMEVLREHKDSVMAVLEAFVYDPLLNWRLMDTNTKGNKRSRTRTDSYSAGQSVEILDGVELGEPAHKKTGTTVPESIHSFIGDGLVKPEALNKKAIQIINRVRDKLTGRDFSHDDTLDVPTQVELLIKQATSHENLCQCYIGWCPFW
Description: mTOR HTR-FRET assay. The class given is biochemical. The note with it: read-out: Act. Level (IC50 in mTor HTR-FRET assay). The protocol:
The following is an example of an assay that can be used to determine the mTOR inhibitory activity of a test compound. Heteroaryl Compounds were dissolved in DMSO and prepared as 10 mM stocks and diluted appropriately for the experiments. Reagents were prepared as follows:
“Simple TOR buffer” (used to dilute high glycerol TOR fraction): 10 mM Tris pH 7.4, 100 mM NaCl, 0.1% Tween-20, 1 mM DTT. Invitrogen mTOR (cat #PR8683A) was diluted in this buffer to an assay concentration of 0.200 μg/mL.
To 20 μL of the Simple mTor buffer is added 0.5 μL of test compound in DMSO. To initiate the reaction 5 μL of ATP/Substrate solution was added to 20 μL of the Simple TOR buffer solution (control) and to the compound solution prepared above.
In general, IC50 refers to the concentration that gives 50% inhibition. Turning to `CO[C@H]1CC[C@@H](N2CC(=O)Nc3ncc(-c4ccc(C(C)(C)O)nc4)nc32)C1` [Example 51, 6-(6-(2-hydroxypropan-2-yl)pyridin-3-yl)-4-((1R,3S)-3-methoxycyclopentyl)-3,4-dihydropyrazino[2,3-b]pyrazin-2(1H)-one], the IC50 is 0.005 to 250 nM.

Turning to `CO[C@@H]1CC[C@H](N2CC(=O)Nc3ncc(-c4ccc(C(C)(C)O)nc4)nc32)C1` [Example 52, 6-(6-(2-hydroxypropan-2-yl)pyridin-3-yl)-4-((1S,3R)-3-methoxycyclopentyl)-3,4-dihydropyrazino[2,3-b]pyrazin-2(1H)-one], the IC50 was in the range of 0.005 to 250 nM.

`CO[C@H]1CC[C@H](CN2CC(=O)Nc3ncc(-c4ccc(C(C)(C)O)nc4)nc32)C1` [Example 53, 6-(6-(2-hydroxypropan-2-yl)pyridin-3-yl)-4-(((1S,3S)-3-methoxycyclopentyl)methyl)-3,4-dihydropyrazino[2,3-b]pyrazin-2(1H)-one]: the IC50 lay in the range of 0.005 to 250 nM.

Regarding `CO[C@@H]1CC[C@@H](CN2CC(=O)Nc3ncc(-c4ccc(C(C)(C)O)nc4)nc32)C1` [Example 54, 6-(6-(2-hydroxypropan-2-yl)pyridin-3-yl)-4-(((1R,3R)-3-methoxycyclopentyl)methyl)-3,4-dihydropyrazino[2,3-b]pyrazin-2(1H)-one], the IC50 is 0.005 to 250 nM.

As for `CO[C@H]1CC[C@H](N2CC(=O)Nc3ncc(-c4ccc(C(C)(C)O)nc4)nc32)C1` [Example 55, 6-(6-(2-hydroxypropan-2-yl)pyridin-3-yl)-4-((1S,3S)-3-methoxycyclopentyl)-3,4-dihydropyrazino[2,3-b]pyrazin-2(1H)-one], the IC50 lay within 1000 to 10000 nM.

Turning to `CO[C@@H]1CC[C@@H](N2CC(=O)Nc3ncc(-c4ccc(C(C)(C)O)nc4)nc32)C1` [Example 56, 6-(6-(2-hydroxypropan-2-yl)pyridin-3-yl)-4-((1R,3R)-3-methoxycyclopentyl)-3,4-dihydropyrazino[2,3-b]pyrazin-2(1H)-one], the IC50 is 0.005 to 250 nM.

Consider `CO[C@H]1CC[C@@H](CN2CC(=O)Nc3ncc(-c4ccc(C(C)(C)O)nc4)nc32)C1` [Example 57, 6-(6-(2-hydroxypropan-2-yl)pyridin-3-yl)-4-(((1R,3S)-3-methoxycyclopentyl)methyl)-3,4-dihydropyrazino[2,3-b]pyrazin-2(1H)-one], for which the IC50 was 0.005 to 250 nM.

For the molecule `CO[C@@H]1CC[C@H](CN2CC(=O)Nc3ncc(-c4ccc(C(C)(C)O)nc4)nc32)C1` [Example 58, 6-(6-(2-hydroxypropan-2-yl)pyridin-3-yl)-4-(((1S,3R)-3-methoxycyclopentyl)methyl)-3,4-dihydropyrazino[2,3-b]pyrazin-2(1H)-one], the IC50 lay in the range of 0.005 to 250 nM.

As to `COCCN1CC(=O)Nc2ncc(-c3ccc(-c4nnc[nH]4)c(F)c3)nc21` [Example 59, 6-(3-fluoro-4-(4H-1,2,4-triazol-3-yl)phenyl)-4-(2-methoxyethyl)-3,4-dihydropyrazino[2,3-b]pyrazin-2(1H)-one], the IC50 was 0.005 to 250 nM.

In the case of `O=C1CN(CCC2CCOCC2)c2nc(-c3ccc(-c4nnc[nH]4)c(F)c3)cnc2N1` [Example 60, 6-(3-fluoro-4-(4H-1,2,4-triazol-3-yl)phenyl)-4-(2-(tetrahydro-2H-pyran-4-yl)ethyl)-3,4-dihydropyrazino[2,3-b]pyrazin-2(1H)-one], the IC50 lay within 0.005 to 250 nM.

For the molecule `Cc1cc(-c2nnc[nH]2)ccc1-c1cnc2c(n1)N(CC1CCOCC1)C1(CCCC1)C(=O)N2` [Example 61, 7′-(2-methyl-4-(4H-1,2,4-triazol-3-yl)phenyl)-1′-((tetrahydro-2H-pyran-4-yl)methyl)-1′H-spiro[cyclopentane-1,2′-pyrazino[2,3-b]pyrazin]-3′(4′H)-one], the IC50 fell in the range of 0.005 to 250 nM.

Consider `Cc1cc(-c2nnc[nH]2)ccc1-c1cnc2c(n1)N(CC1CCOCC1)C1(CCC1)C(=O)N2` [Example 62, 7′-(2-methyl-4-(4H-1,2,4-triazol-3-yl)phenyl)-1′-((tetrahydro-2H-pyran-4-yl)methyl)-1′H-spiro[cyclobutane-1,2′-pyrazino[2,3-b]pyrazin]-3′(4′H)-one], for which the IC50 lay within 0.005 to 250 nM.

`CC(C)(O)c1ccc(-c2cnc3c(n2)N(CC2CC2)CC(=O)N3)cn1` [Example 63, 4-(cyclopropylmethyl)-6-(6-(2-hydroxypropan-2-yl)pyridin-3-yl)-3,4-dihydropyrazino[2,3-b]pyrazin-2(1H)-one]: the IC50 lay within 250 to 500 nM.

With `Cc1cc(-c2nnc[nH]2)ccc1-c1cnc2c(n1)NC1(CCCC1)C(=O)N2` [Example 64, 7′-(2-methyl-4-(4H-1,2,4-triazol-3-yl)phenyl)-1′H-spiro[cyclopentane-1,2′-pyrazino[2,3-b]pyrazin]-3′(4′H)-one], the IC50 is 250 to 500 nM.

As for `Cc1cc(-c2nnc[nH]2)ccc1-c1cnc2c(n1)NC1(CCC1)C(=O)N2` [Example 65, 7′-(2-methyl-4-(4H-1,2,4-triazol-3-yl)phenyl)-1′H-spiro[cyclobutane-1,2′-pyrazino[2,3-b]pyrazin]-3′(4′H)-one], the IC50 was in the range of 250 to 500 nM.

`Cc1cc(-c2nnc[nH]2)ccc1-c1cnc2c(n1)NC1(CC1)C(=O)N2` [Example 66, 7′-(2-methyl-4-(4H-1,2,4-triazol-3-yl)phenyl)-1′H-spiro[cyclopropane-1,2′-pyrazino[2,3-b]pyrazin]-3′(4′H)-one]: the IC50 was in the range of 0.005 to 250 nM.

As for `O=C1CN(C[C@H]2CCCO2)c2nc(-c3ccc(-c4nnc[nH]4)cc3)cnc2N1` [Example 67, (R)-6-(4-(4H-1,2,4-triazol-3-yl)phenyl)-4-((tetrahydrofuran-2-yl)methyl)-3,4-dihydropyrazino[2,3-b]pyrazin-2(1H)-one], the concentration for half-maximal inhibition (IC50) lay in the range of 0.005 to 250 nM.

With `O=C1CN(C[C@@H]2CCCO2)c2nc(-c3ccc(-c4nnc[nH]4)cc3)cnc2N1` [Example 68, (S)-6-(4-(4H-1,2,4-triazol-3-yl)phenyl)-4-((tetrahydrofuran-2-yl)methyl)-3,4-dihydropyrazino[2,3-b]pyrazin-2(1H)-one], the IC50 is 0.005 to 250 nM.

As for `O=C1CN(CCC2CCOCC2)c2nc(-c3ccc4[nH]ncc4c3)cnc2N1` [Example 69, 6-(1H-indazol-5-yl)-4-(2-(tetrahydro-2H-pyran-4-yl)ethyl)-3,4-dihydropyrazino[2,3-b]pyrazin-2(1H)-one], the IC50 fell in the range of 250 to 500 nM.

Take `NC(=O)c1ccc(-c2cnc3c(n2)N(CCC2CCOCC2)CC(=O)N3)cc1` [Example 70, 4-(6-oxo-8-(2-(tetrahydro-2H-pyran-4-yl)ethyl)-5,6,7,8-tetrahydropyrazino[2,3-b]pyrazin-2-yl)benzamide]: the IC50 is 1000 to 10000 nM.

Regarding `COCCN1c2nc(-c3ccc(-c4nnc[nH]4)cc3C)cnc2NC(=O)C1(C)C` [Example 71, 4-(2-methoxyethyl)-3,3-dimethyl-6-(2-methyl-4-(4H-1,2,4-triazol-3-yl)phenyl)-3,4-dihydropyrazino[2,3-b]pyrazin-2(1H)-one], the IC50 was in the range of 0.005 to 250 nM.

On to `CCN1c2nc(-c3ccc(-c4nnc[nH]4)cc3C)cnc2NC(=O)C1(C)C` [Example 72, 4-ethyl-3,3-dimethyl-6-(2-methyl-4-(4H-1,2,4-triazol-3-yl)phenyl)-3,4-dihydropyrazino[2,3-b]pyrazin-2(1H)-one], for which the IC50 fell in the range of 0.005 to 250 nM.

As for `Cc1cc(-c2nnc[nH]2)ccc1-c1cnc2c(n1)NCC(=O)N2` [Example 73, 6-(2-methyl-4-(4H-1,2,4-triazol-3-yl)phenyl)-3,4-dihydropyrazino[2,3-b]pyrazin-2(1H)-one], the IC50 lay within 250 to 500 nM.

Take `Cc1nc(-c2nnc[nH]2)ccc1-c1cnc2c(n1)N(CC1CCOCC1)C(C)(C)C(=O)N2` [Example 74, 3,3-dimethyl-6-(2-methyl-6-(4H-1,2,4-triazol-3-yl)pyridin-3-yl)-4-((tetrahydro-2H-pyran-4-yl)methyl)-3,4-dihydropyrazino[2,3-b]pyrazin-2(1H)-one]: the IC50 fell in the range of 0.005 to 250 nM.

For `C[C@@H](O)c1ccc(-c2cnc3c(n2)N(CCC2CCOCC2)CC(=O)N3)cn1` [Example 75, (R)-6-(6-(1-hydroxyethyl)pyridin-3-yl)-4-(2-(tetrahydro-2H-pyran-4-yl)ethyl)-3,4-dihydropyrazino[2,3-b]pyrazin-2(1H)-one], the IC50 fell in the range of 0.005 to 250 nM.

For `Cc1cc(-c2nnc[nH]2)ccc1-c1cnc2c(n1)N(CC1CCOCC1)C(C)(C)C(=O)N2` [Example 76, 3,3-dimethyl-6-(2-methyl-4-(4H-1,2,4-triazol-3-yl)phenyl)-4-((tetrahydro-2H-pyran-4-yl)methyl)-3,4-dihydropyrazino[2,3-b]pyrazin-2(1H)-one], the IC50 lay in the range of 0.005 to 250 nM.

Turning to `CO[C@H]1CC[C@H](N2CC(=O)Nc3ncc(-c4cnc(C(C)(C)O)cc4C)nc32)CC1` [Example 77, 6-(6-(2-hydroxypropan-2-yl)-4-methylpyridin-3-yl)-4-(trans-4-methoxycyclohexyl)-3,4-dihydropyrazino[2,3-b]pyrazin-2(1H)-one], the IC50 was 0.005 to 250 nM.

For the molecule `Cc1cc(C(C)(C)O)ncc1-c1cnc2c(n1)N(CC1CCOCC1)CC(=O)N2` [Example 78, 6-(6-(2-hydroxypropan-2-yl)-4-methylpyridin-3-yl)-4-((tetrahydro-2H-pyran-4-yl)methyl)-3,4-dihydropyrazino[2,3-b]pyrazin-2(1H)-one], the IC50 was 0.005 to 250 nM.

For `Cc1cc(-c2nnc[nH]2)ccc1-c1cnc2c(n1)NC(C)(C)C(=O)N2` [Example 79, 3,3-dimethyl-6-(2-methyl-4-(4H-1,2,4-triazol-3-yl)phenyl)-3,4-dihydropyrazino[2,3-b]pyrazin-2(1H)-one], the IC50 lay in the range of 250 to 500 nM.

`Cc1nc(-c2nnc[nH]2)ccc1-c1cnc2c(n1)N(CCC1CCOCC1)C(C)(C)C(=O)N2` [Example 80, 3,3-dimethyl-6-(2-methyl-6-(4H-1,2,4-triazol-3-yl)pyridin-3-yl)-4-(2-(tetrahydro-2H-pyran-4-yl)ethyl)-3,4-dihydropyrazino[2,3-b]pyrazin-2(1H)-one]: the IC50 lay in the range of 0.005 to 250 nM.
